These results are taken from patent publication US20260216226A1, “TRIPLE COMBINED THERAPY INHIBITING EGFR, RAF1 AND STAT3 AGAINST PANCREATIC DUCTAL ADENOCARCINOMA” (FUNDACION DEL SECTOR PUBLICO ESTATAL CENTRO NACIONAL DE …, priority 2023, published 2026).

Data set [1] concerns STAT3. Conditions: Kras mutant pancreatic and colon cancer cells; cited from earlier work.
Data set [2] relates to NR PDACs (tumors of big sizes). The data set is described as follows: Tumor growth monitored by ultrasound in genetically engineered mice. Conditions: NR triple: SD-36 50 mg/kg daily added to tamoxifen and Afatinib 20 mg/kg daily. Format: in vivo, mouse. The protocol:
(§1) Silencing of Egfr, Raf1 and Stat3 was mediated with the lentiviral short hairpin RNA (shRNA) plasmids TRCN0000055218, TRCN0000012628 and TRCN0000071453 respectively. The non-target shRNA vector was used as control. The pharmacological treatments were conducted with the following agents: Afatinib (20 mg/kg, daily), SD-36 (50 mg/kg, daily).
It was also included in the combined treatment Afatinib (a tyrosine receptor kinase inhibitor against EGFR) and SD-36 (PROTAC degrader against STAT3).

In data set [3] the target is T1, STAT3 (Mus musculus, UniProt P42227).
T1 construct: Western blot analysis of the expression of STAT3 of cell-lysate extracts; endogenous in cells; host or cells: Egfr lox/lox; Raf1 lox/lox PDAC (NR) tumor cells infected with Adeno-GFP or Adeno-CRE
T1 sequence (P42227 whole entry): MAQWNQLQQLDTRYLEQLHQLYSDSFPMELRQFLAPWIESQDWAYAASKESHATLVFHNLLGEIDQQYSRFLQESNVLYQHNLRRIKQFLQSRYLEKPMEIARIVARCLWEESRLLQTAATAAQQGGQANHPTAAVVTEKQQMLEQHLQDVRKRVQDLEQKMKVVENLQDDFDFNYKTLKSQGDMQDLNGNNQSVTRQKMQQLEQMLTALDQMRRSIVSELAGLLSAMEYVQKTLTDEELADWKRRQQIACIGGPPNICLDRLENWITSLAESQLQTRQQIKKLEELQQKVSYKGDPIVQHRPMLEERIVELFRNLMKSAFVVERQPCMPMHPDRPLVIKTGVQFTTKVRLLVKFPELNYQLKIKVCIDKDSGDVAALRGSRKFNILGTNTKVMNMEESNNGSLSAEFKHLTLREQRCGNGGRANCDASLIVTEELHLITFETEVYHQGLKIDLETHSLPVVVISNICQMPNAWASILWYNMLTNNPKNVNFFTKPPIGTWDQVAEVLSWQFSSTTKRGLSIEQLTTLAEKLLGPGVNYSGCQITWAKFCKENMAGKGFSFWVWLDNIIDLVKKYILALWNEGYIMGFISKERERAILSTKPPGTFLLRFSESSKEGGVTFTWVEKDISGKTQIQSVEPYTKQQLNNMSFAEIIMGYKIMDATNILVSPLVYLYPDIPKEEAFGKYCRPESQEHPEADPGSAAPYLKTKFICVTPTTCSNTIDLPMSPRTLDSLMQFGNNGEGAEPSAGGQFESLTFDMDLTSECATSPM
The data set can be described thus: Western blot analysis of STAT3 expression in cell-lysate extracts. Format: cell-based. Conditions: NR PDAC cells treated with SD-36; GAPDH loading control. The procedure: (§2) FIG. 2. A. Colony formation assay of Egfr^lox/lox; Raf1^lox/lox PDAC cells infected with Adeno-GFP and Adeno-CRE viral particles in combination with treatment with 1 μM SD-36. 5000 cells were seeded for 10 days and culture medium was changed every day. B. Western blot analysis of the expression of STAT3 of cell-lysate extracts. GAPDH was used as loading control.
The expression of STAT3 was targeted by shRNAs after genetic deletion of Egfr and Raf1 in NR cells by Adeno-GFP and Adeno-GFP-CRE infection. […] NR tumor cells, previously infected with Adeno-GFP and Adeno-GFP-CRE virus to eliminate the EGFR and the Raf1 (floxed targets), were treated with SD-36 for 10 days in a colony formation assay. Elimination of the targets was very efficient.
(Immunoblotting shows a protein as a band on a membrane.)

In data set [4] the test system is Egfr^lox/lox; Raf1^lox/lox PDAC cells. The data set can be described thus: Colony formation assay of NR PDAC cells infected with Adeno-GFP or Adeno-CRE. Conditions: 1 μM SD-36, 10 days. It is filed as cell-based. The procedure:
FIG. 1. Colony formation assay of Egfr^lox/lox; Raf1^lox/lox PDAC cells infected with Adeno-GFP and Adeno-CRE viral particles in combination with small-hairpin RNA (shRNA) against STAT3 and Scr (empty vector) as control. 5000 cells were seeded for 10 days. B. Western blot analysis of the expression of EGFR, RAF1 and STAT3 of cell-lysate extracts. GAPDH was used as loading control.
as §2, §1
The expression of STAT3 was targeted by shRNAs after genetic deletion of Egfr and Raf1 in NR cells by Adeno-GFP and Adeno-GFP-CRE infection. […]

Data set [5] concerns pancreatic ductal adenocarcinoma (PDAC). Conditions: adjuvant treatment, patients with resectable disease; cited from earlier work.

Consider `Cn1cnc2c(F)c(Nc3ccc(Br)cc3Cl)c(C(=O)NOCCO)cc21` [AZD6244], for which the STAT3 activation entry in the data set with STAT3 [1] is given as “significantly activated”. With `COc1cccc(-c2cc(=O)c3ccccc3o2)c1N` [PD98059], in the data set with STAT3 [1], the STAT3 activation result is “significantly activated”. With `NC(=O)CC[C@H](NC(=O)[C@@H]1CC[C@@H]2CCN(C(=O)CCCCCC#Cc3cccc4c3CN(C3CCC(=O)NC3=O)C4=O)C[C@H](NC(=O)c3cc4cc(C(F)(F)P(=O)(O)O)ccc4[nH]3)C(=O)N21)C(=O)NC(c1ccccc1)c1ccccc1` (stereo partly shown) [SD-36], the tumor growth result in data set [2] was “significant delay and slight reduction of tumor growth”. For the same compound, at STAT3 [3], the STAT3 degradation result was “effectively degraded STAT3”. For the same compound, in data set [4] (Adeno-GFP infected NR cells, versus vehicle control), the “growth of NR cells that express Egfr and Raf1 (toxicity)” value is reported as “grew similarly as the vehicle control”. The “colony formation / cell death of NR tumor cells” value in data set [4] (NR cells after deletion of Egfr and Raf1 (Adeno-CRE)) is on record as “cell death of NR tumor cells”. With FOLFIRINOX, the “median overall survival (OS)” value in data set [5] is reported as 54 months.
